Read-outs that look alike come from different tables or passages of the source.
Legend:
HIF-1α–NanoLuc = HIF-1α–NanoLuc reporter gene assay (qHTS primary and confirmatory screens); assay type: cell-based, human; details: Homo sapiens
[1] = system: HIF-1α–NanoLuc HCT116 cells; test: Viability (Luc): CellTiter-Glo counter screen in HIF-1α–NanoLuc cells; assay type: cell-based, human; details: Table S7, 1% O2, 18 h
ME-180 cells = test: Cancer cell proliferation assay, ME-180; assay type: cell-based; details: Homo sapiens, ME-180; Table 1; 72 h; read-out: 72-hr Viability ME-180 IC50
Procedure: (§1) HCT116 and ME-180 cells (ATCC) were cultured according to manufacturer's instructions. […] Cell proliferation was quantified as relative luminescence unit (RLU) values using CellTiter-Glo viability assay reagent on a ViewLux plate reader (Perkin Elmer).

[2] = system: co-cultures of human aortic endothelial cells and human mesenchymal stem cells; test: In vitro angiogenesis co-culture assay (tube formation); assay type: cell-based; details: three-day exposure; for IC50 / Emax: Homo sapiens, 72 h, Table 1; for IC50: tube formation; for Emax: percentage of inhibition compared to DMSO controls, read-out: Angiogenesis Efficacy (converted); for Angiogenesis inhibition, result in words: co-culture assay
Procedure: Cells were seeded in a 96-well clear bottom plate (Corning) for five hours and exposed to test compounds for three days at 37°C, 5% CO2.

HCT116 cells = test: Cancer cell proliferation assay, HCT116; assay type: cell-based, human; details: Table 1, 72 h; for IC50: Homo sapiens, HCT-116, read-out: 72-hr Viability HCT116 IC50
Procedure: as §1

[3] = system: hypoxia response element-beta-lactamase (HRE–bla); test: HRE-bla reporter gene assay in ME-180 cells; assay type: cell-based, human; details: for Emax / IC50: Homo sapiens; for Emax: ME-180; for IC50: read-out: HRE-bla IC50
Procedure: (§2) Cell culture of HRE–bla ME-180 cells (Cat. No. K1644, Life Technologies) and HRE–bla assay were conducted according to a reported protocol [6]. […] The fluorescence signals (460/25 nm and 530/20 nm) of CCF4 and luminescence signals of CellTiter-Glo were acquired on an Envision and a ViewLux plate readers (Perkin Elmer), respectively.

HRE–bla ME-180 cells = test: Viability (BLA): CellTiter-Glo counter screen in HRE–bla cells; assay type: cell-based, human; details: for IC50: Homo sapiens, ME-180, Table S7, confirmatory screen, 1% O2, 18 h; for Viability (BLA) confirmatory IC50: Table S7, 1% O2, 18 h
Procedure: as §2

hypoxia signaling genes = test: Real-time qPCR of human hypoxia signaling gene panel in ME-180 cells; details: 1% O2, 18 h, at IC50 concentration of HIF-1α–NanoLuc assay
[4] = HCT-116, Table 1, HCT116 reporter cells, hypoxia 1% O2, 18 h, confirmatory, read-out: HIF-1α-NanoLuc IC50
[5] = Table 1, percentage of inhibition compared to DMSO controls, read-out: HIF-1α-NanoLuc Efficacy (converted)
[6] = Table S7, confirmatory screen, read-out: HIF-1α–NanoLuc confirmatory Efficacy
[7] = Table S7, primary screen, read-out: HIF-1α–NanoLuc primary Efficacy
[8] = Table 1, percentage of inhibition compared to DMSO controls, read-out: HRE-bla Efficacy (converted)
[9] = Table S7, confirmatory screen, read-out: HRE–bla confirmatory Efficacy
[10] = Table 1, ME-180 cells, 1% O2, 18 h
[11] = Table S2, validation, read-out: Pathway inhibitors (validation) HIF-1α–NanoLuc Activity Efficacy

SMILES	IC50 (HIF-1α–NanoLuc; [4])	Emax (HIF-1α–NanoLuc; [5])	Emax (HIF-1α–NanoLuc; [6])	Emax (HIF-1α–NanoLuc; [7])	Viability (Luc) confirmatory IC50 [1]	IC50 (ME-180 cells)	IC50 [2]	Emax [2]	Angiogenesis inhibition, result in words [2]	72-hr Viability HCT116 IC50 (HCT116 cells)	Emax [3, 8]	Emax [3, 9]	IC50 [3, 10]	IC50 (HRE–bla ME-180 cells)	Emax (HIF-1α–NanoLuc; [11])	Effect on expression of hypoxia-induced genes, in words (hypoxia signaling genes)	IC50 (HCT116 cells)	Viability (BLA) confirmatory IC50 (HRE–bla ME-180 cells)	further results
COc1c(C)c2c(c(O)c1C/C=C(\C)CCC(=O)OCCN1CCOCC1)C(=O)OC2 [Mycophenolate mofetil]	1580 ± 450 nM	59%	59 ± 5%	61%	Inactive	1820 ± 740 nM	110 ± 60 nM	93%	submicromolar concentrations	Inactive	58%	58 ± 4%	210 ± 50 nM	530 nM	–	–	–	–	IC50 (HIF-1α–NanoLuc; Table S7, primary screen, read-out: HIF-1α–NanoLuc primary IC50): 330 nM
Oc1cccc(-c2nc(N3CCOCC3)c3oc4ncccc4c3n2)c1 [PI-103]	920 ± 60 nM	57%	57 ± 10%	–	Inactive	370 ± 20 nM	320 ± 90 nM	80%	submicromolar concentrations	Inactive	62%	62 ± 3%	150 ± 20 nM	770 ± 250 nM	80 ± 3%	decreased the expression levels of all hypoxia-induced genes tested	–	–	IC50 (HIF-1α–NanoLuc; Table S2, validation, read-out: Pathway inhibitors (validation) HIF-1α–NanoLuc Activity IC50): 2770 ± 40 nM
Cn1cnc2c(F)c(Nc3ccc(Br)cc3Cl)c(C(=O)NOCCO)cc21 [Selumetinib]	1490 ± 1300 nM	48%	48 ± 10%	62%	Inactive	270 ± 60 nM	10 nM	92%	–	–	–	–	–	–	48 ± 10%	–	22800 ± 3890 nM	Inactive	Emax (HIF-1α–NanoLuc; Table S2, primary screen, read-out: Pathway inhibitors (primary screen) HIF-1α–NanoLuc Activity Efficacy): 62%; IC50 (HIF-1α–NanoLuc; Table S2, primary screen, read-out: Pathway inhibitors (primary screen) HIF-1α–NanoLuc Activity IC50): 40 nM; HRE-bla IC50 [3, 10]: Inactive
CC(=O)Nc1cccc(-n2c(=O)n(C3CC3)c(=O)c3c(Nc4ccc(I)cc4F)n(C)c(=O)c(C)c32)c1 [Trametinib]	2980 ± 4640 nM	69%	69 ± 5%	–	Inactive	60 ± 20 nM	0.05 ± 0.05 nM	89%	picomolar IC50 value	–	53%	53 ± 9%	20500 ± 8110 nM	–	69 ± 5%	decreased expression levels of HIF1A and many hypoxia responsive genes	640 ± 110 nM	Inactive	–

— publication PMC4884984, “Identification of approved and investigational drugs that inhibit hypoxia-inducible factor-1 signaling” (Oncotarget, 2016)
